# Laboratory results: patent US11618743B2, “Herbicidal compounds” (SYNGENTA PARTICIPATIONS AG, priority 2017, dated 2023)
# Legend:
# Assay in all cases: Post-emergence efficacy, Method A
# Type in all cases: in vivo
# Setaria faberi (SETFA) = conditions: Application rate 500 g/Ha, evaluated after 13 days; for Control of weed species after post-emergence application, SETFA: 100=total damage to plant, 0=no damage; for Control of weed species SETFA after post-emergence application (100=total damage to plant; 0=no damage to plant): Method A
# Description: (§1) Seeds of a variety of test species were sown in standard soil in pots. After cultivation for 14 days (post-emergence) under controlled conditions in a glasshouse (at 24/16° C., day/night; 14 hours light; 65% humidity), the plants were sprayed with an aqueous spray solution derived from the dissolution of the technical active ingredient formula (I) in a small amount of acetone and a special solvent and emulsifier mixture referred to as IF50 (11.12% Emulsogen EL360 TM+44.44% N-methylpyrrolidone+44.44% Dowanol DPM glycol ether), to create a 50 g/l solution which was then diluted to required concentration using 0.25% or 1% Empicol ESC70 (Sodium lauryl ether sulphate)+1% ammonium sulphate as diluent.
# (§2) The test plants were then grown in a glasshouse under controlled conditions (at 24/16° C., day/night; 14 hours light; 65% humidity) and watered twice daily. After 13 days the test was evaluated (100=total damage to plant; 0=no damage to plant).
# (§3) Ipomoea hederacea (IPOHE), Euphorbia heterophylla (EPHHL), Chenopodium album (CHEAL), Amaranthus palmeri (AMAPA), Lolium perenne (LOLPE), Digitaria sanguinalis (DIGSA), Eleusine indica (ELEIN), Echinochloa crus-galli (ECHCG), Setaria faberi (SETFA)
# [1] = test system: Echinochloa crus-galli (ECHCG); conditions: Application rate 500 g/Ha, evaluated after 13 days; for Control of weed species after post-emergence application, ECHCG: 100=total damage to plant, 0=no damage; for Control of weed species ECHCG after post-emergence application (100=total damage to plant; 0=no damage to plant): Method A
# Description: as §1, §2, §3
# [2] = test system: Digitaria sanguinalis (DIGSA); conditions: Application rate 500 g/Ha, evaluated after 13 days; for Control of weed species after post-emergence application, DIGSA: 100=total damage to plant, 0=no damage; for Control of weed species DIGSA after post-emergence application (100=total damage to plant; 0=no damage to plant): Method A
# Description: as §1, §2, §3
# [3] = test system: Chenopodium album (CHEAL); conditions: Application rate 500 g/Ha, evaluated after 13 days; for Control of weed species after post-emergence application, CHEAL: 100=total damage to plant, 0=no damage; for Control of weed species CHEAL after post-emergence application (100=total damage to plant; 0=no damage to plant): Method A
# Description: as §1, §2, §3
# [4] = test system: Euphorbia heterophylla (EPHHL); conditions: Application rate 500 g/Ha, evaluated after 13 days; for Control of weed species after post-emergence application, EPHHL: 100=total damage to plant, 0=no damage; for Control of weed species EPHHL after post-emergence application (100=total damage to plant; 0=no damage to plant): Method A
# Description: as §1, §2, §3
# [5] = test system: Amaranthus palmeri (AMAPA); conditions: Application rate 500 g/Ha, evaluated after 13 days; for Control of weed species after post-emergence application, AMAPA: 100=total damage to plant, 0=no damage; for Control of weed species AMAPA after post-emergence application (100=total damage to plant; 0=no damage to plant): Method A
# Description: as §1, §2, §3
# Eleusine indica (ELEIN) = conditions: Application rate 500 g/Ha, evaluated after 13 days; for Control of weed species after post-emergence application, ELEIN: 100=total damage to plant, 0=no damage; for Control of weed species ELEIN after post-emergence application (100=total damage to plant; 0=no damage to plant): Method A
# Description: as §1, §2, §3
Structure (SMILES),"Control of weed species after post-emergence application, SETFA (Setaria faberi (SETFA))","Control of weed species after post-emergence application, ECHCG [1]","Control of weed species after post-emergence application, DIGSA [2]","Control of weed species after post-emergence application, CHEAL [3]","Control of weed species after post-emergence application, EPHHL [4]","Control of weed species after post-emergence application, AMAPA [5]","Control of weed species after post-emergence application, ELEIN (Eleusine indica (ELEIN))",Control of weed species SETFA after post-emergence application (100=total damage to plant; 0=no damage to plant) (Setaria faberi (SETFA)),Control of weed species ECHCG after post-emergence application (100=total damage to plant; 0=no damage to plant) [1],Control of weed species DIGSA after post-emergence application (100=total damage to plant; 0=no damage to plant) [2],Control of weed species CHEAL after post-emergence application (100=total damage to plant; 0=no damage to plant) [3],Control of weed species EPHHL after post-emergence application (100=total damage to plant; 0=no damage to plant) [4],Control of weed species AMAPA after post-emergence application (100=total damage to plant; 0=no damage to plant) [5],Control of weed species ELEIN after post-emergence application (100=total damage to plant; 0=no damage to plant) (Eleusine indica (ELEIN))
CC(C)(CC(=O)O)[n+]1ccc(-c2ccncn2)cn1.O=C([O-])C(F)(F)F [Compound A189],70,80,50,100,90,100,90,,,,,,,
"CC(CC(=O)O)[n+]1ccc(-c2ncccn2)cn1.O=C([O-])C(F)(F)F (stereo not shown) [Compound A40, 3-(4-pyrimidin-2-ylpyridazin-1-ium-1-yl)butanoic acid 2,2,2-trifluoroacetate]",,,,,,,,100,90,90,70,90,90,90
Nc1nccc(-c2cc[n+](CCC(=O)O)nc2)n1.O=C([O-])C(F)(F)F [Compound A160],90,70,70,100,90,100,80,,,,,,,
O=C([O-])C(F)(F)F.O=P(O)(O)CC[n+]1ccc(-c2ncccn2)cn1 [Compound A198],90,80,80,100,100,100,80,,,,,,,
O=C(O)CC[n+]1ccc(-c2cncc(C(F)(F)F)n2)cn1.O=C([O-])C(F)(F)F [Compound A120],,,,,,,,40,40,40,70,50,90,30
O=C(O)CC[n+]1ccc(-c2ncc(F)cc2F)cn1.O=C([O-])C(F)(F)F [Compound A144],,,,,,,,20,20,30,10,20,20,20
"COC(=O)CC[n+]1ccc(-c2ncccn2)cn1.O=C([O-])C(F)(F)F [Compound A54, methyl 3-(4-pyrimidin-2-ylpyridazin-1-ium-1-yl)propanoate 2,2,2-trifluoroacetate]",,,,,,,,100,90,100,90,70,90,100
